Measurements from PubChem BioAssay AID330 (DTP/NCI, 2004).
Where “and” joins values, the source holds several entries; their conditions need not be identical. Identical values can stand only once. Inconclusive results and toxic doses are left out.

System: P388 leukemia ip, CD2F1 mice, survival T/C
Assay: NCI In Vivo Anticancer Drug Screen. Data for tumor model P388 Leukemia (intraperitoneal) in CD2F1 (CDF1) mice
Settings: endpoint: median survival time, higher = longer survival
Procedure, shortened: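 Mice carrying the transplanted tumor received test compound or vehicle. Survival was recorded in each group, and the value is the treated-group measurement divided by that of the vehicle-treated control group.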

[1] = dose: 100.0 mg/kg/injection, schedule: Q01DX009 (ip), vehicle: saline with Tween-80
[2] = dose: 200.0 mg/kg/injection, schedule: Q01DX009 (ip), vehicle: saline with Tween-80
[3] = dose: 50.0 mg/kg/injection, schedule: Q01DX009 (ip), vehicle: saline with Tween-80
[4] = dose: 50.0 mg/kg/injection, schedule: Q01DX005 (ip), vehicle: Klucel (hydroxypropylcellulose) (HPC)
[5] = dose: 50.0 mg/kg/injection, schedule: Q01DX005 (ip), vehicle: saline with Tween-80
[6] = dose: 25.0 mg/kg/injection, schedule: Q01DX009 (ip), vehicle: saline
[7] = dose: 50.0 mg/kg/injection, schedule: Q01DX009 (ip), vehicle: saline
[8] = dose: 200.0 mg/kg/injection, schedule: Q01DX009 (ip), vehicle: saline

`O=NN(CCCl)C(=O)Nc1ccc(Br)cn1` was tested, and the T/C (dose: 50.0 mg/kg/injection, schedule: Q04DX003 (ip), vehicle: saline with Tween-80) was 100 % of control, the T/C [1] was 150 % of control and the T/C (dose: 100.0 mg/kg/injection, schedule: Q04DX003 (ip), vehicle: saline with Tween-80) was 100 % of control. For the same compound, the T/C [2] was 150 % of control and the T/C (dose: 200.0 mg/kg/injection, schedule: Q04DX003 (ip), vehicle: saline with Tween-80) was 118 % of control.
With `O=C(CN1CCC(O)(c2ccccc2)CC1)N1CCN(/C=C/c2ccccc2)CC1` the T/C (dose: 60.0 mg/kg/injection, schedule: Q01DX005 (ip), vehicle: saline with Tween-80) was 100 % of control, the T/C (dose: 120.0 mg/kg/injection, schedule: Q01DX005 (ip), vehicle: saline with Tween-80) was 104 % of control and the T/C (dose: 240.0 mg/kg/injection, schedule: Q01DX005 (ip), vehicle: saline with Tween-80) was 91 % of control.
For `NC(CC(C(=O)O)c1ccccc1)C(=O)O` (centres undefined), the T/C [3] was 106 % of control, the T/C [1] was 94 % of control and the T/C [2] was 94 % of control.
In the case of `C=C1C(=O)[C@@]23CC1C(O)[C@@H](OC(C)=O)[C@@H]2C1(C)C(OC(C)=O)C[C@@H](OC(C)=O)C(C)(C)[C@@H]1C[C@H]3OC(C)=O` (some centres undefined), the T/C (dose: 25.0 mg/kg/injection, schedule: Q01DX005 (ip), vehicle: Klucel (hydroxypropylcellulose) (HPC)) was 102 % of control and the T/C [4] was 117 % of control.
In the case of `CC(c1ccc(OCc2ccccc2)cc1)c1cc2c(cc1OCCO)OCO2` (centres undefined), the T/C [5] was 98 % of control, the T/C (dose: 100.0 mg/kg/injection, schedule: Q01DX005 (ip), vehicle: saline with Tween-80) was 100 % of control and the T/C (dose: 200.0 mg/kg/injection, schedule: Q01DX005 (ip), vehicle: saline with Tween-80) was 100 % of control.
In the case of `O=P1(N2CCOCC2)OC(c2ccccc2)=CCN1c1ccccc1` (centres undefined), the T/C [4] was 103 % of control, the T/C (dose: 100.0 mg/kg/injection, schedule: Q01DX005 (ip), vehicle: Klucel (hydroxypropylcellulose) (HPC)) was 103 % of control and the T/C (dose: 200.0 mg/kg/injection, schedule: Q01DX005 (ip), vehicle: Klucel (hydroxypropylcellulose) (HPC)) was 104 % of control.
For `NCCNCC[OH2+].NCCNCC[OH2+].O=[N+]([O-])[O-].[Cu+2]`, the T/C (dose: 3.12 mg/kg/injection, schedule: Q01DX009 (ip), vehicle: Klucel (hydroxypropylcellulose) (HPC)) was 98 % of control, the T/C (dose: 6.25 mg/kg/injection, schedule: Q01DX009 (ip), vehicle: Klucel (hydroxypropylcellulose) (HPC)) was 111 % of control and the T/C (dose: 6.25 mg/kg/injection, schedule: Q04DX003 (ip), vehicle: saline) was 97 % of control. The T/C (dose: 12.5 mg/kg/injection, schedule: Q01DX009 (ip), vehicle: Klucel (hydroxypropylcellulose) (HPC)) was 93 % of control, the T/C (dose: 12.5 mg/kg/injection, schedule: Q04DX003 (ip), vehicle: saline) was 100 % of control and the T/C (dose: 25.0 mg/kg/injection, schedule: Q04DX003 (ip), vehicle: saline) was 86 % of control.
In the case of `CC1/C=C/C=C/CC/C=C/C=C/C=C/C=C/C(OC2OC(C)C(O)C(N)C2O)CC2OC(CC(O)C(O)CCC(O)CC(O)CC(O)CC(=O)OC(C)C(C)C1O)CC(O)C2C(=O)O` (centres undefined), the T/C (dose: 6.25 mg/kg/injection, schedule: Q01DX005 (ip), vehicle: saline with Tween-80) was 95 % of control, the T/C (dose: 9.5 mg/kg/injection, schedule: Q01DX009 (ip), vehicle: saline sonified) was 100 % of control and the T/C (dose: 12.5 mg/kg/injection, schedule: Q01DX005 (ip), vehicle: saline with Tween-80) was 109 % of control. The T/C (dose: 19.0 mg/kg/injection, schedule: Q01DX009 (ip), vehicle: saline sonified) was 95 % of control, the T/C (dose: 25.0 mg/kg/injection, schedule: Q01DX005 (ip), vehicle: saline with Tween-80) was 104 % of control and the T/C (dose: 38.0 mg/kg/injection, schedule: Q01DX009 (ip), vehicle: saline sonified) was 100 % of control. For the same compound, the T/C [5] was 95 % of control.
With `CC(C)(C)CC(C)(C)c1ccc(OCc2ccc(C(F)(F)F)cc2)cc1` the T/C [3] was 100 % of control, the T/C [1] was 96 % of control and the T/C [2] was 100 % of control.
`N=C(N)SCc1csc(N)n1` was tested, and the T/C [6] was 105 % of control, the T/C [7] was 102 % of control and the T/C (dose: 100.0 mg/kg/injection, schedule: Q01DX009 (ip), vehicle: saline) was 109 % of control. The T/C [8] was 108 % of control.
`Cc1cc(Br)c2c(c1N)C(=O)c1ccccc1C2=O` was tested, and the T/C (dose: 50.0 mg/kg/injection, schedule: Q01DX009 (ip), vehicle: Klucel (hydroxypropylcellulose) (HPC)) was 99 % of control, the T/C (dose: 100.0 mg/kg/injection, schedule: Q01DX009 (ip), vehicle: Klucel (hydroxypropylcellulose) (HPC)) was 107 % of control and the T/C (dose: 200.0 mg/kg/injection, schedule: Q01DX009 (ip), vehicle: Klucel (hydroxypropylcellulose) (HPC)) was 102 % of control.
For `COC(=O)c1cc([N+](=O)[O-])ccc1N=NNc1ccccc1`, the T/C (dose: 12.5 mg/kg/injection, schedule: Q01DX009 (ip), vehicle: saline) was 106 % of control, the T/C [6] was 103 % of control and 95 % of control and the T/C [7] was 100 % of control and 105 % of control and 95 % of control. The T/C [8] was 87 % of control.
For `CC(C(=O)O)C(Nc1ncnc2c1ncn2C1OC(CO)C(O)C1O)C(=O)O` (centres undefined), the T/C (dose: 100.0 mg/kg/injection, schedule: Q04DX003 (ip), vehicle: saline) was 98 % of control, the T/C (dose: 200.0 mg/kg/injection, schedule: Q04DX003 (ip), vehicle: saline) was 100 % of control and the T/C (dose: 400.0 mg/kg/injection, schedule: Q04DX003 (ip), vehicle: saline) was 98 % of control.
